Structures can show the parent of a compound that is named as a salt.
Target: β -galactosidase
Experiment: β-galactosidase inhibitory activity (colorimetric, O-nitrophenyl-β-D-galactopyranose substrate)
Format: biochemical, Aspergillus sp.
Conditions: acetate buffer pH 5.0, 37°C, 15 minutes
Description: The assay of this activity was carried out by permitting β -galactosidase to act on the substrate O-nitrophenyl-β -D-galactopyranose and quantitating O-nitrophenol, which was released on hydrolysis, colorimetrically. Thus, a mixture of 0.9 ml of 100 mM acetate buffer (pH 5.0), 0.1 ml of a solution of the test substance (dissolved in 100 mM acetate buffer at pH 5.0) and 0.5 ml of a 20 mM substrate solution was previously warmed at 37°C for […] and, then, dissolved in 10 mM acetate buffer at pH 5.0. Then, 0.5 ml of a solution of β -galactosidase was added and the reaction was conducted at 37°C for 15 minutes. The absorbance (A) at 420 nm was then measured. The absorbance (B) of a reaction mixture not containing the test substance was also measured and using the equation of % inhibition = (B - A)/B x 100 [formula] , the concentration of the test substance causing 50% inhibition of β -galactosidase activity (IC₅₀) was determined. The β -galactosidase derived from Aspergillus sp. was used. It is clear that the compound of the present invention has high β -galactosidase inhibitory activity.

| SMILES | IC₅₀ (Test Example 2) [ng/mL] | IC₅₀ (Test Example 1) [ng/mL] |
| --- | --- | --- |
| CC(=O)Nc1ccc(CN2C[C@H](O)[C@@H](O)[C@@H](O)[C@H]2CO)cc1 [Example 18, N-(p-acetamidobenzyl)-1-deoxygalactostatin] | 340 |  |
| OC[C@@H]1[C@H](O)[C@H](O)[C@@H](O)CN1CCCc1ccccc1 [Example 7, N-(3-phenylpropyl)-1-deoxygalactostatin] |  | 88 |
| COc1ccc(CN2C[C@H](O)[C@@H](O)[C@@H](O)[C@H]2CO)cc1C [Example 22, N-(3'-methyl-4'-methoxybenzyl)-1-deoxygalactostatin] | 359 |  |
| CCCN1C[C@H](O)[C@@H](O)[C@@H](O)[C@H]1CO [Example 3, N-n-propyl-1-deoxygalactostatin] |  | 44 |
| CCCCN1C[C@H](O)[C@@H](O)[C@@H](O)[C@H]1CO [Example 23, N-n-butyl-1-deoxygalactostatin] | 154 |  |
| OC[C@H]1NC[C@H](O)[C@@H](O)[C@H]1O [1-deoxygalactostatin hydrochloride, reference compound] | 440 | 451 |
| COc1ccc(CN2C[C@H](O)[C@@H](O)[C@@H](O)[C@H]2CO)cc1 [Example 14, N-p-methoxybenzyl-1-deoxygalactostatin] | 391 |  |
| OC[C@@H](O)[C@H](O)[C@H](O)[C@@H](O)CN1C[C@H](O)[C@@H](O)[C@@H](O)[C@H]1CO [Example 17, N-(1'-deoxygalactitoyl)-1-deoxygalactostatin] | 49 |  |
| CSc1ccc(CN2C[C@H](O)[C@@H](O)[C@@H](O)[C@H]2CO)cc1 [Example 15, N-p-methylthiobenzyl-1-deoxygalactostatin] | 393 |  |
| CCN1C[C@H](O)[C@@H](O)[C@@H](O)[C@H]1CO [Example 2, N-ethyl-1-deoxygalactostatin] |  | 82 |
| CC(C)CN1C[C@H](O)[C@@H](O)[C@@H](O)[C@H]1CO [Example 4, N-isobutyl-1-deoxygalactostatin] |  | 40 |
| CCCCCCCN1C[C@H](O)[C@@H](O)[C@@H](O)[C@H]1CO [Example 5, N-n-heptyl-1-deoxygalacto-statin] |  | 32 |
| OC[C@@H]1[C@H](O)[C@H](O)[C@@H](O)CN1Cc1ccc(Cl)cc1 [Example 8, N-p-chlorobenzyl-1-deoxygalactostatin] |  | 180 |
| C=CCN1C[C@H](O)[C@@H](O)[C@@H](O)[C@H]1CO [Example 9, N-allyl-1-deoxygalactostatin] |  | 187 |
| OC[C@@H]1[C@H](O)[C@H](O)[C@@H](O)CN1CCc1ccccc1 [Example 16, N-phenylethyl-1-deoxygalactostatin] | 21 |  |
| OC[C@@H]1[C@H](O)[C@H](O)[C@@H](O)CN1CC=Cc1ccccc1 [Example 10, N-cinnamyl-1-deoxygalactostatin] |  | 175 |
| COCCN1C[C@H](O)[C@@H](O)[C@@H](O)[C@H]1CO [Example 11, N-methoxyethyl-1-deoxygalactostatin] | 59 |  |
| CSCCCN1C[C@H](O)[C@@H](O)[C@@H](O)[C@H]1CO [Example 21, N-(3'-methylthiopropyl)-1-deoxygalactostatin] | 49 |  |
| CN1C[C@H](O)[C@@H](O)[C@@H](O)[C@H]1CO [Example 1, N-methyl-1-deoxygalactostatin] |  | 15 |
| CCCCCCCCCCCCN1C[C@H](O)[C@@H](O)[C@@H](O)[C@H]1CO [Example 6, N-n-dodecyl-1-deoxygalactostatin] |  | 23 |
| CCCCCN1C[C@H](O)[C@@H](O)[C@@H](O)[C@H]1CO [Example 13, N-n-pentylnyl-1-deoxygalactostatin] | 113 |  |
| O=C(O)CCCN1C[C@H](O)[C@@H](O)[C@@H](O)[C@H]1CO [Example 24, N-(3-carboxypropyl)-1-deoxygalactostatin] | 351 |  |
| OC[C@@H]1[C@H](O)[C@H](O)[C@@H](O)CN1CC1CCCCC1 [Example 20, N-cyclohexylmethyl-1-deoxygalactostatin] | 37 |  |
| OC[C@@H]1[C@H](O)[C@H](O)[C@@H](O)CN1Cc1ccc(-c2ccccc2)cc1 [Example 12, N-(p-phenylbenzyl)-1-deoxygalactostatin] | 166 |  |

Reference: patent EP0536402A1, “PIPERIDINE DERIVATIVE” (NIPPON SHINYAKU COMPANY, LIMITED, priority 1990, dated 1992)
